# Results reported in patent US20160075689A1, “POLYMERASE, ENDONUCLEASE, AND HELICASE INHIBITORS AND METHODS OF USING THEREOF” (THE BOARD OF TRUSTEES OF THE UNIVERSITY OF ARKANSAS, priority 2013, published 2016).
# Values joined by “and” are separate entries in the source; they are usually repeats but may differ in a detail not shown here. Equal entries are not always repeated.
# Columns and labels:
# Format in all cases: biochemical
# [1] = biological target: T1, EndoG (Homo sapiens, UniProt Q14249); assay: High-throughput EndoG screening assay
# T1 sequence (Q14249 49-297): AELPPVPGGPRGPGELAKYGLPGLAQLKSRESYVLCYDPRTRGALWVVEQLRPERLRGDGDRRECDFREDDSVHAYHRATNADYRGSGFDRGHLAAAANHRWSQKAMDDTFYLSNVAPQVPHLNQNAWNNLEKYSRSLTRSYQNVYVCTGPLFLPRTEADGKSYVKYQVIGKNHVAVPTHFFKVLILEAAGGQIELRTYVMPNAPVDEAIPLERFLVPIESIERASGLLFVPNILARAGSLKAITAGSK
# Experimental: A reaction mixture was prepared in each well of a white 96-well plate (Costar, Corning, N.Y.) as follows: 0.25 μM Cy5.5-labeled oligonucleotide (described in US provisional patent filed Oct. 19, 2012, Ser. No. 61/716,097) 0.3 mM MgCl2, 10 mM Tris-HCl, pH 7.4, 1 μl DMSO containing 5 or 50 ng of test compound, and nuclease-free water for a total reaction volume of 100 μl. The background (negative control) and uninhibited EndoG samples were measured using DMSO only, or DMSO containing recombinant EndoG (4 μg/ml), respectively. After addition of EndoG, fluorescence intensity was kinetically measured on a Bio-Tek Synergy 4.0 plate reader at 37° C. and mean velocity (mRFU/min) within 20 min was automatically calculated by the plate reader. The background was subtracted prior to the calculation of EndoG activity (%). The percent of EndoG activity was calculated from the mean velocity of a compound divided by the mean velocity of DMSO with recombinant EndoG, and the obtained value multiplied by 100.
# [2] = biological target: T2, HCV NS3 helicase (Hepatitis C virus genotype 1b, UniProt P26663); assay: Fluorescence-based helicase assay; conditions: IC50 for inhibition of NS3 helicase, mean ± standard deviation of three data sets
# T2 construct: analyze the helicase activity of NS3 helicase in the presence of the compounds; made in house
# T2 sequence (P26663 1027-1657): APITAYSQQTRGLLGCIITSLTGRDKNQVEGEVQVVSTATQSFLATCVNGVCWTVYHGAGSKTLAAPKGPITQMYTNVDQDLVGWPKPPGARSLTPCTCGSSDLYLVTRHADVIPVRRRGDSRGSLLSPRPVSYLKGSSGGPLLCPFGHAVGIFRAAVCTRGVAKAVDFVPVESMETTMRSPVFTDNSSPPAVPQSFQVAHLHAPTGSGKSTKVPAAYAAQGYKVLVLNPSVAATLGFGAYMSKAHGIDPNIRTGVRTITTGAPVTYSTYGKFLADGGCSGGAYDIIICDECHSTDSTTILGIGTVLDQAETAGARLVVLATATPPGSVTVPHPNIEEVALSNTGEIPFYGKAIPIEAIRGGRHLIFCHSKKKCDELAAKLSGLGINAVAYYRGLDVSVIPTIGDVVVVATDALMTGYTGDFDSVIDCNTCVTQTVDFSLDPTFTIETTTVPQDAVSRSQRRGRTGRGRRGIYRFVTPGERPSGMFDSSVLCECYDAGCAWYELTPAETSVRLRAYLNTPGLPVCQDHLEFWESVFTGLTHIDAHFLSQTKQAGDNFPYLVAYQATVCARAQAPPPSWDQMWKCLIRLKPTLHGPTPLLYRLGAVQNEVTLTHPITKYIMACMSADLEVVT
# Experimental: A library of compounds was screened using a previously validated quantitative assay that measures helicase activity over time. The assay relies upon helicase-catalyzed displacement of a fluorescently-labeled oligonucleotide (FIG. 13A). The concentration of enzyme and compounds used was 250 nM and 20 μM respectively. The experiments were performed in triplicate. […] Three potential helicase inhibitors were identified using the fluorescence based assay. […] The inhibitor compounds identified in our screen were ITBA-3-79, ITBA-3-82 and ITBA-3-85 (FIG. 14A). […] The IC50 value for ITBA-3-79, ITBA-3-82 and ITBA-3-85-mediated inhibition of NS3 helicase ranged˜20 μM (FIG. 14C). The ATPase activity of NS3 (50 μM) was analyzed in the presence of ITBA-3-79, ITBA-3-82 and ITBA-3-85 using a coupled spectrophotometric assay (Raney and Benkovic 1995, (FIG. 15). The protease activity of NS3 was analyzed in the presence of ITBA-3-79, ITBA-3-82 and ITBA-3-85 by using 50 nM NS3-4A and 100 nM substrate (Ac-Asp-Glu-Asp-EDANS-Glu-Glu-Abu-L-Lactoyl-Ser-Lys DABCYL-NH2, FIG. 15. The NS3 helicase activity was analyzed in the presence of 25 μM ITBA-3-79, ITBA-3-82 and ITBA-3-85 (FIG. 16).
# A fluorescence based quantitative assay that measures helicase activity over time was employed to screen the compounds. The concentration of enzyme and compounds used was 250 nM and 20 μM respectively. Helicase catalyzes the unwinding of a FAM-labeled dsDNA and the resulting increase in fluorescence is plotted (λex-485 nm; λem, −528 nm). The slope of the initial part of the plot was used to calculate the percentage helicase activity. […] The IC50 value for ITBA-3-79, ITBA-3-82 and ITBA-3-85-mediated inhibition of NS3 helicase was determined using the same assay.
# [3] = tested on: RNase A; assay: Ribonuclease A activity in NRK-52E cell extract; conditions: 0.1 μM and 10 μM
# Experimental: As a follow up to Example 8, the effects of the EndoG inhibitors PNR-3-80 and PNR-3-82, at 0.1 μM and 10 μM each, on the activities of four other enzymes including RNase A, protease, LDH, and SOD in NRK-52E cell extract were examined. NRK-52E cells were grown to ˜80% confluence in […]. The medium was aspirated and the cells were rinsed with ice cold 1×PBS, pH 7.4. The cells were lysed in 50 mM Tris-HCl, pH 7.4, 150 mM NaCl, 1% Triton X-100 for 10 min on ice and then briefly sonicated. Cell debris was removed by centrifugation at 13,000×g for 10 min at 4° C. The supernatant was collected and stored at −80° C. until use. LDH, Protease, Superoxide dismutase (SOD), and Ribonuclease A (RNase A) activities were measured by using CytoTox 96® Non-Radioactive Cytotoxicity Assay kit (Promega, Madison, Wis.), Protease Fluorescent Detection kit (Sigma-Aldrich, Saint Louis, Mo.), SOD determination kit (Sigma-Aldrich, Saint Louis, Mo.), and Ribonuclease A Detection kit (Sigma-Aldrich, Saint Louis, Mo.), respectively, according to the manufacturer's instructions.
# [4] = biological target: T1, EndoG; assay: Plasmid incision assay; conditions: agarose gel, FIG. 9
# Experimental: A reaction mixture was prepared containing 0.5 μg pECFP plasmid DNA, 2 mM CaCl2, 5 mM MgCl2, 10 mM Tris-HCl, pH 7.4, 0.5 mM dithiothreitol. The test compound [50 ng in DMSO (1 μl)] was added. Recombinant EndoG was then added to the final concentration of 200 ng/ml and the reaction was incubated for 1 h at 37° C. The reaction was terminated by adding 2 μl of 10 mM Tris-HCl, pH 7.4, 1% SDS, 25 mM EDTA, 7.2 mM bromophenol blue. The samples were run in 1% agarose gel in Tris-acetate-EDTA buffer (40 mM Tris, 20 mM acetic acid, 1 mM EDTA, pH 8), at 7 V/cm for 35 min, and DNA was stained with ethidium bromide. An EagleEye scanning densitometer (Stratagene, La Jolla, Calif.) was utilized to quantify the relative amount of endonuclease-treated plasmid DNA present in a covalently-closed circular (supercoiled) DNA, open circular DNA, or linear DNA, or in a digested form.
smiles,measurement,setting,value
COc1ccc2c(c1)c(C=C1C(=O)NC(=S)NC1=O)cn2C(=O)c1ccc2ccccc2c1 [PNR-3-82],remaining activity at 1 µM,"[1]; 20 min, compound 1 μM, read-out: % EndoG activity in the presence of the compound",21.8%
same,IC50,"[1]; IC50 against EndoG, EndoG screening assay",613 nM and 610 nM
same,IC50,[2],~20 µM and 21.4 µM
same,RNase A activity,[3],none of the two tested compounds had any inhibiting activity
same,protection of supercoiled plasmid DNA from degradation by EndoG,[4],significantly protected the plasmid DNA from degradation
